Test results from ChEMBL document CHEMBL1201862, “PubChem BioAssay data set” (2004).
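Tested at 5 concentrations; 48 h exposure; 96-well plates; endpoints linearly interpolated, else capped at highest concentration. GI50 = concentration required for 50% inhibition of growth.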 Active and inactive are the calls of the source. No stated cut-off is given here; in the data, active = GI50 up to about 1.1 µM and inactive = higher.

How the values were obtained:
Assay in all cases: NCI tumour cell line growth inhibition, 48 h
786-0 = test system: 786-0
A498 = test system: A498
A549 = test system: A549
ACHN = test system: ACHN
BT-549 = test system: BT-549
CAKI-1 = test system: CAKI-1
CCRF-CEM = test system: CCRF-CEM
COLO 205 = test system: COLO 205
DU-145 = test system: DU-145
EKVX = test system: EKVX
HCC 2998 = test system: HCC 2998
HCT-116 = test system: HCT-116
HCT-15 = test system: HCT-15
HL-60 = test system: HL-60
HOP-62 = test system: HOP-62
HOP-92 = test system: HOP-92
HT-29 = test system: HT-29
Hs-578T = test system: Hs-578T
IGROV-1 = test system: IGROV-1
K562 = test system: K562
KM12 = test system: KM12
LOX IMVI = test system: LOX IMVI
M14 = test system: M14
MCF7 = test system: MCF7
MDA-MB-231 = test system: MDA-MB-231
MDA-MB-435 = test system: MDA-MB-435
MDA-N = test system: MDA-N
MOLT-4 = test system: MOLT-4
NCI-H226 = test system: NCI-H226
NCI-H23 = test system: NCI-H23
NCI-H460 = test system: NCI-H460
NCI-H522 = test system: NCI-H522
NCI/ADR-RES = test system: NCI/ADR-RES
OVCAR-3 = test system: OVCAR-3
OVCAR-4 = test system: OVCAR-4
OVCAR-5 = test system: OVCAR-5
OVCAR-8 = test system: OVCAR-8
PC-3 = test system: PC-3
RPMI-8226 = test system: RPMI-8226
RXF 393 = test system: RXF 393
SF-268 = test system: SF-268
SF-295 = test system: SF-295
SF-539 = test system: SF-539
SK-MEL-2 = test system: SK-MEL-2
SK-MEL-5 = test system: SK-MEL-5
SK-OV-3 = test system: SK-OV-3
SN12C = test system: SN12C
SNB-19 = test system: SNB-19
SNB-75 = test system: SNB-75
SW-620 = test system: SW-620
T47D = test system: T47D
TK-10 = test system: TK-10
U-251 = test system: U-251
UACC-257 = test system: UACC-257
UACC-62 = test system: UACC-62
UO-31 = test system: UO-31

CCCNC(=S)N/C=C1\C(=O)Nc2ccccc2C1=O
GI50 (786-0): > 100 µM (inactive) | GI50 (A498): > 100 µM (inactive) | GI50 (A549): > 100 µM (inactive) | GI50 (ACHN): > 100 µM (inactive) | GI50 (BT-549): > 100 µM (inactive) | GI50 (CAKI-1): > 100 µM (inactive) | GI50 (CCRF-CEM): > 100 µM (inactive) | GI50 (COLO 205): > 100 µM (inactive) | GI50 (DU-145): > 100 µM (inactive) | GI50 (EKVX): > 100 µM (inactive) | GI50 (HCC 2998): > 100 µM (inactive) | GI50 (HCT-116): > 100 µM (inactive) | GI50 (HCT-15): > 100 µM | GI50 (HL-60): > 100 µM (inactive) | GI50 (HOP-62): > 100 µM (inactive) | GI50 (HOP-92): > 100 µM (inactive) | GI50 (HT-29): > 100 µM (inactive) | GI50 (Hs-578T): > 100 µM (inactive) | GI50 (IGROV-1): > 100 µM (inactive) | GI50 (K562): > 100 µM (inactive) | GI50 (KM12): > 100 µM (inactive) | GI50 (LOX IMVI): > 100 µM (inactive) | GI50 (M14): > 100 µM (inactive) | GI50 (MCF7): > 100 µM (inactive) | GI50 (MDA-MB-231): > 100 µM (inactive) | GI50 (MDA-MB-435): > 100 µM (inactive) | GI50 (MDA-N): > 100 µM (inactive) | GI50 (MOLT-4): > 100 µM (inactive) | GI50 (NCI-H226): > 100 µM (inactive) | GI50 (NCI-H23): > 100 µM (inactive) | GI50 (NCI-H460): > 100 µM (inactive) | GI50 (NCI-H522): > 100 µM (inactive) | GI50 (NCI/ADR-RES): > 100 µM (inactive) | GI50 (OVCAR-3): > 100 µM (inactive) | GI50 (OVCAR-4): > 100 µM (inactive) | GI50 (OVCAR-5): > 100 µM (inactive) | GI50 (OVCAR-8): > 100 µM (inactive) | GI50 (PC-3): > 100 µM (inactive) | GI50 (RPMI-8226): > 100 µM (inactive) | GI50 (RXF 393): > 100 µM (inactive) | GI50 (SF-268): > 100 µM (inactive) | GI50 (SF-295): > 100 µM (inactive) | GI50 (SF-539): > 100 µM (inactive) | GI50 (SK-MEL-2): > 100 µM (inactive) | GI50 (SK-MEL-5): > 100 µM (inactive) | GI50 (SK-OV-3): > 100 µM (inactive) | GI50 (SN12C): > 100 µM (inactive) | GI50 (SNB-19): > 100 µM (inactive) | GI50 (SNB-75): 83.2 µM (inactive) | GI50 (SW-620): > 100 µM (inactive) | GI50 (T47D): > 100 µM (inactive) | GI50 (TK-10): > 100 µM (inactive) | GI50 (U-251): > 100 µM (inactive) | GI50 (UACC-257): > 100 µM (inactive) | GI50 (UACC-62): > 100 µM (inactive) | GI50 (UO-31): > 100 µM (inactive)
